Here are results for 19 molecules from publication PMC12735844, “2-(Trihydroxyphenyl)thienopyrimidinones as Key Scaffolds for Targeting a Novel Allosteric Site of HIV-1 Integrase” (Molecules, 2025).

The structures appear in SMILES notation. Several values for one entry are separate records, joined by “and”; a condition that tells them apart may be missing. Equal entries are not always repeated. Where two headings read alike, the source gives them in different places.

In series [1] the target is T1, HIV-1 IN (wild-type) in the presence of LEDGF/p75 (Human immunodeficiency virus type 1 group M subtype B, UniProt P12497).
T1 construct: IN is a 32 kDa multimeric enzyme comprising three domains; His; made in house; host or cells: Escherichia coli BL21 (DE3)
In words: HTRF HIV-1 IN LEDGF/p75-dependent assay (3'-processing and strand transfer), wild-type IN, with or without sucrose. It counts as biochemical. The following applies: for IC50: IC50 IN LEDGF/p75-dependent integration. The method, then:
(§1) The IN LEDGF/p75-dependent and indepentent assay was performed for the evaluation of 3′-processing and strand-transfer IN reactions inhibition in the presence/absence of recombinant LEDGF/p75 protein, as previously described.
(§2) The same assay in the presence of HIV-1 IN wt, K173A and H185A mutant proteins, was used to evaluate the effect of sucrose in the presence of selected compounds.
Background: TR-FRET usually uses a lanthanide donor and a delayed reading to cut background.

Series [2] concerns the target T1, HIV-1 IN (wild-type) in the presence of LEDGF/p75. On the set-up: method as in PMID 37764476, PMID 23631411. The note with it: previously reported dihydroxyphenyl-thienopyrimidinones; read-out: IN LEDGF/p75-dependent IC50; cited from earlier work.
The target in series [3] is T2, HIV-1 IN in the absence of LEDGF/p75 (Human immunodeficiency virus type 1 group M subtype B, UniProt P12497).
T2 construct: His; made in house; host or cells: Escherichia coli BL21 (DE3)
In words: HTRF HIV-1 IN LEDGF/p75-independent assay. It counts as biochemical. The note with it: mean ± SE, three experiments, read-out: IC50 IN LEDGF/p75-independent integration. The protocol:
as §1

The target in series [4] is T3, HIV-1 IN-IN subunit exchange (Human immunodeficiency virus type 1 group M subtype B, UniProt P12497).
T3 construct: IN is a 32 kDa multimeric enzyme comprising three domains; made in house; host or cells: Escherichia coli BL21 (DE3)
In words: HTRF-based IN-IN subunit exchange assay. The format is biochemical. The following applies: for IC50: mean ± SE, three experiments. The protocol: (§3) HIV-1 His and FLAG-tagged INs were mixed in a mix buffer previously described and compounds added to the mixture and incubated for 2.5 h at room temperature. At the end of the time, a mixture of anti-His6-XL665 and anti-FLAG-EuCryptate antibodies were added to the reaction and, after an incubation time of 3 h, the HTRF signal was recorded as described in the previous paragraph.

Series [5] has as its target T4, HIV-1 IN/LEDGF/p75 binding (Human immunodeficiency virus type 1 group M subtype B, UniProt P12497).
T4 construct: IN is a 32 kDa multimeric enzyme comprising three domains; made in house; host or cells: Escherichia coli BL21 (DE3)
In words: HTRF-based IN-LEDGF/p75 binding assay. The note with it: mean ± SE, three experiments. The method, then: The IN-LEDGF/p75 binding was evaluated using a FRET method, in which His-IN was pre-incubated with test compounds in a mix buffer previously described, for 30 min at room temperature. After the addition of FLAG-LEDGF/p75 and a mixture of anti-His6-XL665 and anti-FLAG-EuCryptate antibodies, the reaction was read after 4 h at 4 °C, using 314 nm for excitation wavelength and […] and 620 nm for the wavelength of the acceptor and donor emission, respectively, with a Perkin Elmer Victor 3 plate reader (Perkin Elmer, Waltham, MA, USA), and the HTRF signal calculated by the emission ratio 665 nm/620 nm multiplied by 10.000.

The target in series [6] is T5, HIV-1 IN multimerization (Human immunodeficiency virus type 1 group M subtype B, UniProt P12497).
T5 construct: IN is a 32 kDa multimeric enzyme comprising three domains; made in house; host or cells: Escherichia coli BL21 (DE3)
In words: HTRF-based assay of higher-order, aberrant IN multimerization. It counts as biochemical. The following applies: dash = no induction of higher-order. The method, then:
as §3

Series [7] has as its target wt RT RNase H. On the set-up: method as in PMID 33143469. The following applies: previously reported quinazolinone; cited from earlier work.
Series [8] has as its target T6, HIV-1 IN K173A mutant (Human immunodeficiency virus type 1 group M subtype B, UniProt P12497, K1320A).
T6 construct: IN is a 32 kDa multimeric enzyme comprising three domains; His; made in house; host or cells: Escherichia coli BL21 (DE3)
In words: HTRF IN LEDGF/p75-dependent assay on K173A mutant, with or without sucrose. It counts as biochemical. The following applies: for Fold of increase of potency, K173A mutant: with sucrose vs alone. The method, then:
(§4) The commercial QuikChange mutagenesis Kit (Agilent Technologies Inc., Santa Clara, CA, USA) were used to introduce the selected substitutions on HIV-1 IN wt plasmid and the correct presence of alanine in 173 and 185 position were evaluated in the electropherogram provided by Bio-Fab, after the sequencing.
(§5) HIV-1 IN wt, K173A and H185A mutant proteins were expressed in Escherichia coli strain BL21 (DE3) after transformation with a plasmid containing protein gene. Recombinant proteins were then purified using a Ni-Sepharose column and a heparin column and stored as previously described. LEDGF/p75 with 6-his and FLAG tags were purified with a heparin column and a Superdex 200 GL (Merck Sigma Aldrich, Milan, Italy) column previously described.
as §1, §2

In series [9] the target is T7, HIV-1 IN H185A mutant (Human immunodeficiency virus type 1 group M subtype B, UniProt P12497, F1332A).
T7 construct: IN is a 32 kDa multimeric enzyme comprising three domains; His; made in house; host or cells: Escherichia coli BL21 (DE3)
As to the kind of experiment: HTRF IN LEDGF/p75-dependent assay on H185A mutant, with or without sucrose. The format is biochemical. The following applies: for IC50: LEDGF/p75-dependent activity; for Fold of increase of potency, H185A mutant: with sucrose vs alone. The protocol:
as §4, §5, §1, §2

Series [10] deals with human T-cell line CEM-SS. As to the kind of experiment: Cytotoxicity in the XTT-based cell viability assay. The following applies: CEM-SS cells. The method, then:
(§6) Antiviral activity of selected thienopyrimidinones was determined via the 2,3-bis[2-methoxy-4-nitro-5-sulfophenyl]-5-[(phenylamino)-carbonyl]-2H tetrazolium hydroxide (XTT)-based cell viability assay, using the HIV-1RF isolate and human T-cell line CEM-SS.

Series [11] relates to HIV-1RF isolate in CEM-SS cells. As to the kind of experiment: Antiviral activity, XTT-based cell viability assay. The protocol: as §6
For orientation: Tetrazolium dyes change colour on reduction, which living cells bring about.

Setting [12] is: in the presence of LEDGF/p75, compound alone, mean ± SE, three experiments.
[13] abbreviates: HIV-1 IN H185A mutant IC50 alone, no sucrose.
[14] abbreviates: HIV-1 IN H185A mutant IC50 with sucrose, in the presence of sucrose.
Setting [15] is: LEDGF/p75-dependent, IC50 alone vs with sucrose.

`O=c1[nH]c(-c2c(O)cc(O)cc2O)nc2sc3c(c12)CCCCC3` [C00007]: in series [1] (setting [12]), the IC50 stood at 5.2 ± 1.2 µM.
The same measure, in the same setting: under `O=c1[nH]c(-c2cc(O)c(O)c(O)c2)nc2sc3c(c12)CCC3` [C00009] stands 0.87 ± 0.045 µM.
Turning to `Cc1sc2nc(-c3cc(O)cc(O)c3)[nH]c(=O)c2c1C` [Compound 2], the IC50 in series [2] is 3.7 ± 0.73 µM.
On to `O=c1[nH]c(-c2cc(O)c(O)c(O)c2)nc2sc3c(c12)CCC3` [Compound 13, 2-(3,4,5-Trihydroxyphenyl)-3,5,6,7-tetrahydro-4H-cyclopenta[4,5]thieno[2,3-d]pyrimidin-4-one], for which, in [3], the IC50 was 1.12 ± 0.22 µM.
As to `Cc1sc2nc(-c3cc(O)c(O)cc3O)[nH]c(=O)c2c1C` [C00002], the IC50 in series [1] (setting [12]) was 0.45 ± 0.09 µM.
Same read-out and setting: to `Cc1sc2nc(-c3ccc(O)c(O)c3O)[nH]c(=O)c2c1C` [Compound 8, 5,6-Dimethyl-2-(2,3,4-trihydroxyphenyl)thieno[2,3-d]pyrimidin-4(3H)-one] belongs 11.8 ± 1.85 µM; to `Cc1sc2nc(-c3c(O)cc(O)cc3O)[nH]c(=O)c2c1C` [Compound 7, 5,6-Dimethyl-2-(2,4,6-trihydroxyphenyl)thieno[2,3-d]pyrimidin-4(3H)-one], 6.1 ± 1.6 µM.
With `O=c1[nH]c(-c2cc(O)c(O)cc2O)nc2sc3c(c12)CCC3` [Compound 12, 2-(2,4,5-Ttrihydroxyphenyl)-3,5,6,7-tetrahydro-4H-cyclopenta[4,5]thieno[2,3-d]pyrimidin-4-one], the IC50 in series [4] came out at 17.3 ± 1.7 µM; in series [5], 24.7 ± 1.75 µM; in [3], 0.86 ± 0.14 µM. The “MI50 IN multimerization” value in series [6] was “none succeeded in inducing multimerization”.
As for `O=c1[nH]c(-c2ccc(O)c(O)c2)nc2ccc(I)cc12` [Compound 1], the IC50 in [7] is 0.11 ± 0.01 µM.
For `Cc1sc2nc(-c3cc(O)ccc3O)[nH]c(=O)c2c1C` [Compound 4], the IC50 in series [2] was 85 ± 6 µM.
Take `Cc1sc2nc(-c3cc(O)c(O)cc3O)[nH]c(=O)c2c1C` [Compound 6, 5,6-Dimethyl-2-(2,4,5-trihydroxyphenyl)thieno[2,3-d]pyrimidin-4(3H)-one]: the IC50 in series [8] was determined as 6.5 ± 1.7 µM; in series [4] it was 5.45 ± 0.05 µM; in series [5], 75 ± 12 µM; in [9] (setting [13]), 4.64 ± 0.7 µM; in series [9] (setting [14]) it was 0.48 ± 0.08 µM; in series [3], 0.76 ± 0.01 µM. Further, in series [8], the “Fold of increase of potency, K173A mutant” value came to 32.5. Moreover, the “Fold of increase of potency, H185A mutant” value in series [9] is recorded as 9.7. Further, in series [6], the “MI50 IN multimerization” value is listed as “none succeeded in inducing multimerization”. Further, in series [1] (setting [15]), the “reduction in activity by sucrose (times)” value is given as “approximately 10”. Besides, the cytotoxicity result in series [10] is “devoid of cytotoxicity”. Further, the “effect on viral replication” value in series [11] is listed as “not able to inhibit viral replication”.
As to `OC[C@H]1O[C@@](CO)(O[C@H]2O[C@H](CO)[C@@H](O)[C@H](O)[C@H]2O)[C@@H](O)[C@@H]1O` [sucrose, reference compound], the “IC50 IN LEDGF/p75-dependent integration” value in [1] (setting [12]) is “inactive”.
Regarding `CCCC(C(=O)O)c1c(C)nc2ccc(Cl)cc2c1-c1ccccc1` (centres unmarked) [LEDGIN-6, reference compound], the IC50 was greater than 100 µM in [4], 10 ± 0.4 µM in [5], 10 ± 2 µM in series [3] and 9 ± 2 µM in series [1] (setting [12]). The “percentage in parentheses after >100, IN-IN subunit exchange” value in series [4] (meaning of the bracketed percentage is not defined in the paper) is >100 (100%). For the same molecule, the EC50 in [6] (read-out: MI50 IN multimerization) came out at 10 ± 1 µM.
With `O=c1[nH]c(-c2cc(O)c(O)c(O)c2)nc2sc3c(c12)CCCCC3` [Compound 10, 2-(3,4,5-Trihydroxyphenyl)-3,5,6,7,8,9-hexahydro-4H-cyclohepta[4,5]thieno[2,3-d]pyrimidin-4-one], the IC50 was 3.3 ± 0.86 µM in series [8]; 2.05 ± 0.35 µM in series [4]; 6.16 ± 0.98 µM in series [5]; 2.27 ± 0.43 µM in series [9] (setting [13]); 0.61 ± 0.022 µM in series [9] (setting [14]); 3.6 ± 0.39 µM in series [3]. For the same molecule, the IC50 in [1] (setting [12]) is 0.31 µM and 0.315 µM. Also, the “Fold of increase of potency, K173A mutant” value in series [8] turned out to be 13.2. The “Fold of increase of potency, H185A mutant” value in series [9] came out at 3.7. Moreover, the “MI50 IN multimerization” value in [6] was “none succeeded in inducing multimerization”. The “increase of inhibitory capacity by sucrose (times)” value in [1] (setting [15]) is listed as roughly 16. Also, in series [10], the cytotoxicity entry is on record as “devoid of cytotoxicity”. Further, in [11], the “effect on viral replication” value is “not able to inhibit viral replication”.
In the case of `O=c1[nH]c(-c2cc(O)c(O)cc2O)nc2sc3c(c12)CCC3` [C00008], in series [1] (setting [12]), the IC50 was found to be 1.96 ± 0.125 µM.
Take `O=c1[nH]c(-c2cc(O)c(O)cc2O)nc2sc3c(c12)CCCCC3` [Compound 9, 2-(2,4,5-Trihydroxyphenyl)-3,5,6,7,8,9-hexahydro-4H-cyclohepta[4,5]thieno[2,3-d]pyrimidin-4-one]: the IC50 in series [4] is 6.35 ± 1.35 µM; in series [5] it was greater than 100 µM; in [3] it was 0.99 ± 0.09 µM; in series [1] (setting [12]), 0.965 ± 0.035 µM. Besides, the “IC50 IN/LEDGF/p75 binding” value in series [5] is “inactive”. Also, the “MI50 IN multimerization” value in series [6] is “none succeeded in inducing multimerization”.
For `O=c1[nH]c(-c2cc(O)cc(O)c2)nc2sc3c(c12)CCCCC3` [Compound 3], in [2], the IC50 was 3.37 ± 0.48 µM.
`O=c1[nH]c(-c2cc(O)c(O)c(O)c2)nc2sc3c(c12)CCCCC3` [C00006]: the IC50 in series [1] (setting [12]) amounted to 0.31 ± 0.035 µM.
On to `Cc1sc2nc(-c3cc(O)c(O)c(O)c3)[nH]c(=O)c2c1C` [Compound 5, 5,6-Dimethyl-2-(3,4,5-trihydroxyphenyl)thieno[2,3-d]pyrimidin-4(3H)-one], for which the IC50 in series [3] is 5.35 ± 0.55 µM; in [1] (setting [12]), 8 ± 2 µM.
